Test results published in patent US12060347B2 (BRISTOL-MYERS SQUIBB COMPANY, priority 2016, dated 2024).
pIC50: −log10 of the molar value.

Each compound was assayed against T1, human PAR4 (Homo sapiens, UniProt Q96RI0) (assay: PAR4 FLIPR assay: antagonism of agonist-peptide-induced calcium mobilization in PAR4-expressing HEK293 cells). Details: H-Ala-Phe(4-F)-[…]NH2-induced intracellular calcium mobilization, 11-point curves.
T1 construct: expressed in transfected cells; host or cells: HEK293 PAR4 Clone 1.2A (BMS Arctic ID 383940)
T1 sequence (Q96RI0 18-385): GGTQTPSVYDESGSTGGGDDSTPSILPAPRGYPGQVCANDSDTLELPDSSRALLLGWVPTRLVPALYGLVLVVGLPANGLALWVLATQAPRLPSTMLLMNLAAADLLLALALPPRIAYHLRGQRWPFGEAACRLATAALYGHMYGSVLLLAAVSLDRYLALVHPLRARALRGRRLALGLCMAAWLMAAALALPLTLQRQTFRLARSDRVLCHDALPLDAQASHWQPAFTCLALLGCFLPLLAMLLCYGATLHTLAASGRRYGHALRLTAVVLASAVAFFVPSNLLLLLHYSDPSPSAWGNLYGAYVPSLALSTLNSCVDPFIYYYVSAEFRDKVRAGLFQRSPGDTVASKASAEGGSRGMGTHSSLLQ
Type: cell-based

Row | Compound | pIC50
1 | COCc1cnc2c(-c3nc4c(C)cc(OCCNS(=O)(=O)c5ccc(F)cc5)cc4s3)cccc2n1 [Example 213, 4-fluoro-N-(2-((2-(2-(methoxymethyl)quinoxalin-5-yl)-4-methylbenzo[d]thiazol-6-yl)oxy)ethyl) benzenesulfonamide] | 8.24
2 | COc1cnc2c(-c3nc4c(F)c(F)c(OC)cc4s3)cc(Cl)cc2n1 [Example 214, 2-(7-chloro-2-methoxyquinoxalin-5-yl)-4,5-difluoro-6-methoxybenzo[d]thiazole] | 8.37
3 | COc1cnc2c(-c3nc4c(Cl)c(F)c(OC)cc4s3)cc(Cl)cc2n1 [Example 215, 4-chloro-2-(7-chloro-2-methoxyquinoxalin-5-yl)-5-fluoro-6-methoxybenzo[d]thiazole] | 8.54
4 | COc1cnc2c(-c3nc4c(Cl)c(F)c(OC)cc4s3)c(C)c(C)cc2n1 [Example 216, 4-chloro-5-fluoro-6-methoxy-2-(2-methoxy-6,7-dimethylquinoxalin-5-yl)benzo[d] thiazole] | 6.80
5 | COc1cnc2c(-c3nc4c(F)c(F)c(OC)cc4s3)cc(C#N)cc2n1 [Example 217, 8-(4,5-difluoro-6-methoxybenzo[d]thiazol-2-yl)-3-methoxyquinoxaline-6-carbonitrile] | 7.74
6 | COc1cnc2c(-c3nc4c(Cl)c(F)c(OC)cc4s3)cc(CO)cc2n1 [Example 218, (8-(4-chloro-5-fluoro-6-methoxybenzo[d]thiazol-2-yl)-3-methoxyquinoxalin-6-yl)methanol] | 8.60
7 | COc1cnc2c(-c3nc4c(C)c(C)c(OC)cc4s3)cc(CO)cc2n1 [Example 219, (3-methoxy-8-(6-methoxy-4,5-dimethylbenzo [d]thiazol-2-yl)quinoxalin-6-yl)methanol] | 8.26
8 | COc1cnc2c(-c3nc4c(F)c(F)c(OC)cc4s3)cc(CO)cc2n1 [Example 220, (8-(4,5-difluoro-6-methoxybenzo[d]thiazol-2-yl)-3-methoxyquinoxalin-6-yl)methanol] | 8.59
9 | COc1cnc2c(-c3nc4cc(F)c(OC)cc4s3)cc(C#N)cc2n1 [Example 221, 8-(5-fluoro-6-methoxybenzo[d]thiazol-2-yl)-3-methoxyquinoxaline-6-carbonitrile] | 7.68
10 | COc1cnc2c(-c3nc4cc(F)c(OC)cc4s3)cc(CO)cc2n1 [Example 222, (8-(5-fluoro-6-methoxybenzo [d]thiazol-2-yl)-3-methoxyquinoxalin-6-yl)methanol] | 9.00
11 | COc1cnc2c(-c3nc4c(C)cc(OC)nc4s3)cc(CO)cc2n1 [Example 223, (3-methoxy-8-(5-methoxy-7-methylthiazolo[5,4-b]pyridin-2-yl)quinoxalin-6-yl)methanol] | 8.00
12 | COc1cnc2c(-c3nc4c(Cl)c(F)c(OC)cc4s3)cc(CO)c(F)c2n1 [Example 224, (8-(4-chloro-5-fluoro-6-methoxybenzo[d]thiazol-2-yl)-5-fluoro-3-methoxyquinoxalin-6-yl)methanol] | 7.82
13 | COCc1cnc2c(-c3nc4c(C)cc(OCCNS(=O)(=O)c5ccc(F)cc5)cc4s3)cc(C(N)=O)cc2n1 [Example 225, 8-(6-(2-(4-fluorophenylsulfonamido)ethoxy)-4-methylbenzo[d]thiazol-2-yl)-3-(methoxymethyl)quinoxaline-6-carboxamide] | 7.27
14 | COCc1cnc2c(-c3nc4c(C)cc(OCCNS(=O)(=O)c5ccc(F)cc5)cc4s3)cc(C(=O)N3CCCCC3)cc2n1 [Example 227, 4-fluoro-N-(2-((2-(2-(methoxymethyl)-7-(piperidine-1-carbonyl)quinoxalin-5-yl)-4-methylbenzo[d]thiazol-6-yl)oxy)ethyl)benzenesulfonamide] | 6.80
15 | COCCNC(=O)c1cc(-c2nc3c(C)cc(OCCNS(=O)(=O)c4ccc(F)cc4)cc3s2)c2ncc(COC)nc2c1 [Example 228, 8-(6-(2-(4-fluorophenylsulfonamido)ethoxy)-4-methylbenzo[d]thiazol-2-yl)-N-(2-methoxyethyl)-3-(methoxymethyl)quinoxaline-6-carboxamide] | 6.05
16 | C=Cc1cc(-c2nc3c(C)cc(OCCNS(=O)(=O)c4ccc(F)cc4)cc3s2)c2ncc(OC)nc2c1 [Example 229, 4-fluoro-N-(2-((2-(2-methoxy-7-vinylquinoxalin-5-yl)-4-methylbenzo[d]thiazol-6-yl)oxy)ethyl)benzenesulfonamide] | 8.41
17 | C#Cc1cc(-c2nc3c(C)cc(OCCNS(=O)(=O)c4ccc(F)cc4)cc3s2)c2ncc(OC)nc2c1 [Example 230, N-(2-((2-(7-ethynyl-2-methoxyquinoxalin-5-yl)-4-methylbenzo[d]thiazol-6-yl)oxy)ethyl)-4-fluorobenzenesulfonamide] | 8.66

Row | Compound | pIC50
18 | COc1cnc2c(-c3nc4c(C)cc(OCCNS(=O)(=O)c5ccc(F)cc5)cc4s3)cc(C#N)cc2n1 [Example 231, N-(2-((2-(7-cyano-2-methoxyquinoxalin-5-yl)-4-methylbenzo[d]thiazol-6-yl)oxy)ethyl)-4-fluorobenzenesulfonamide] | 9.00
19 | COCc1cnc2c(-c3nc4c(C)cc(OCCNS(=O)(=O)c5ccc(F)cc5)cc4s3)cc(C#N)cc2n1 [Example 232, N-(2-((2-(7-cyano-2-(methoxymethyl)quinoxalin-5-yl)-4-methylbenzo[d]thiazol-6-yl)oxy)ethyl)-4-fluorobenzenesulfonamide] | 9.15
20 | COCc1cnc2c(-c3nc4c(C)cc(OC)cc4s3)cc(C#N)cc2n1 [Example 233, 8-(6-methoxy-4-methylbenzo[d]thiazol-2-yl)-3-(methoxymethyl)quinoxaline-6-carbonitrile] | 9.40
21 | C=Cc1cc(-c2nc3c(C)cc(OCCNS(=O)(=O)c4ccc(F)cc4)cc3s2)c2ncc(COC)nc2c1 [Example 234, 4-fluoro-N-(2-((2-(2-(methoxymethyl)-7-vinylquinoxalin-5-yl)-4-methylbenzo[d]thiazol-6-yl)oxy)ethyl)benzenesulfonamide] | 8.85
22 | COc1cnc2c(-c3nc4c(C)cc(OCCNS(=O)(=O)c5ccc(F)cc5)cc4s3)cc(CO)cc2n1 [Example 235, 4-fluoro-N-(2-((2-(7-(hydroxymethyl)-2-methoxyquinoxalin-5-yl)-4-methylbenzo[d]thiazol-6-yl)oxy)ethyl)benzenesulfonamide] | 8.66
23 | COc1cnc2c(-c3nc4c(C)cc(OCCNS(=O)(=O)c5ccc(F)cc5)cc4s3)cc(C(O)CO)cc2n1 (stereo not drawn) [Example 236, N-(2-((2-(7-(1,2-dihydroxyethyl)-2-methoxyquinoxalin-5-yl)-4-methylbenzo[d]thiazol-6-yl)oxy)ethyl)-4-fluorobenzenesulfonamide] | 6.85
24 | COc1cnc2c(-c3nc4c(C)cc(OCCNS(=O)(=O)c5ccc(F)cc5)cc4s3)cc(CCO)cc2n1 [Example 237, 4-fluoro-N-(2-((2-(7-(2-hydroxyethyl)-2-methoxyquinoxalin-5-yl)-4-methylbenzo[d]thiazol-6-yl)oxy)ethyl)benzenesulfonamide] | 6.77
25 | COc1cnc2c(-c3nc4c(C)cc(OCCNS(=O)(=O)c5ccc(F)cc5)cc4s3)cc(CN)cc2n1 [Example 238, N-(2-((2-(7-(aminomethyl)-2-methoxyquinoxalin-5-yl)-4-methylbenzo[d]thiazol-6-yl)oxy)ethyl)-4-fluorobenzenesulfonamide] | 5.89
26 | COc1cnc2c(-c3nc4c(C)cc(OCCNS(=O)(=O)c5ccc(F)cc5)cc4s3)cc(C(C)O)cc2n1 (stereo not drawn) [Example 239, 4-fluoro-N-(2-((2-(7-(1-hydroxyethyl)-2-methoxyquinoxalin-5-yl)-4-methylbenzo[d]thiazol-6-yl)oxy)ethyl)benzenesulfonamide] | 8.10
27 | COc1cnc2c(-c3nc4c(C)cc(OCCNS(=O)(=O)c5ccc(F)cc5)cc4s3)cc(C(O)c3ccccc3)cc2n1 (stereo not drawn) [Example 240, 4-fluoro-N-(2-((2-(7-(hydroxy(phenyl)methyl)-2-methoxyquinoxalin-5-yl)-4-methylbenzo[d]thiazol-6-yl)oxy)ethyl)benzenesulfonamide] | 7.14
28 | C=C(C)c1cc(-c2nc3c(C)cc(OCCNS(=O)(=O)c4ccc(F)cc4)cc3s2)c2ncc(OC)nc2c1 [Example 241, 4-fluoro-N-(2-((2-(2-methoxy-7-(prop-1-en-2-yl)quinoxalin-5-yl)-4-methylbenzo[d]thiazol-6-yl)oxy)ethyl)benzenesulfonamide] | 8.27
29 | COc1cnc2c(-c3nc4c(C)cc(OCCNS(=O)(=O)c5ccc(F)cc5)cc4s3)cc(C(C)(C)O)cc2n1 [Example 242, 4-fluoro-N-(2-((2-(7-(2-hydroxypropan-2-yl)-2-methoxyquinoxalin-5-yl)-4-methylbenzo[d]thiazol-6-yl)oxy)ethyl)benzenesulfonamide] | 6.92
30 | COc1cnc2c(-c3nc4c(C)c(F)c(OC)cc4s3)cc(CO)cc2n1 [Example 243, (8-(5-fluoro-6-methoxy-4-methylbenzo[d]thiazol-2-yl)-3-methoxyquinoxalin-6-yl) methanol] | 8.92
31 | COc1cnc2c(-c3nc4c(C)c(F)c(OC)cc4s3)cc(C(C)O)cc2n1 (stereo not drawn) [Example 244, 1-(8-(5-fluoro-6-methoxy-4-methylbenzo[d]thiazol-2-yl)-3-methoxyquinoxalin-6-yl) ethanol] | 8.70
32 | COc1cnc2c(-c3nc4c(C)c(F)c(OC)cc4s3)cc(C(O)c3ccccc3)cc2n1 (stereo not drawn) [Example 245, (8-(5-fluoro-6-methoxy-4-methylbenzo[d]thiazol-2-yl)-3-methoxyquinoxalin-6-yl) (phenyl)methanol] | 7.04
33 | COc1cnc2c(-c3nc4c(C)c(F)c(OC)cc4s3)cc(C(O)C3CC3)cc2n1 (stereo not drawn) [Example 246, Cyclopropyl(8-(5-fluoro-6-methoxy-4-methylbenzo[d]thiazol-2-yl)-3-methoxyquinoxalin-6-yl)methanol] | 6.85
